Measured values reported in ChEMBL document CHEMBL1201862, “PubChem BioAssay data set” (2004).
Active and inactive are the calls of the source.

Experiments:
[1] = biological target: T1, Apoptotic protease-activating factor 1 (Homo sapiens, UniProt O14727); format: functional
T1 sequence (O14727 whole entry): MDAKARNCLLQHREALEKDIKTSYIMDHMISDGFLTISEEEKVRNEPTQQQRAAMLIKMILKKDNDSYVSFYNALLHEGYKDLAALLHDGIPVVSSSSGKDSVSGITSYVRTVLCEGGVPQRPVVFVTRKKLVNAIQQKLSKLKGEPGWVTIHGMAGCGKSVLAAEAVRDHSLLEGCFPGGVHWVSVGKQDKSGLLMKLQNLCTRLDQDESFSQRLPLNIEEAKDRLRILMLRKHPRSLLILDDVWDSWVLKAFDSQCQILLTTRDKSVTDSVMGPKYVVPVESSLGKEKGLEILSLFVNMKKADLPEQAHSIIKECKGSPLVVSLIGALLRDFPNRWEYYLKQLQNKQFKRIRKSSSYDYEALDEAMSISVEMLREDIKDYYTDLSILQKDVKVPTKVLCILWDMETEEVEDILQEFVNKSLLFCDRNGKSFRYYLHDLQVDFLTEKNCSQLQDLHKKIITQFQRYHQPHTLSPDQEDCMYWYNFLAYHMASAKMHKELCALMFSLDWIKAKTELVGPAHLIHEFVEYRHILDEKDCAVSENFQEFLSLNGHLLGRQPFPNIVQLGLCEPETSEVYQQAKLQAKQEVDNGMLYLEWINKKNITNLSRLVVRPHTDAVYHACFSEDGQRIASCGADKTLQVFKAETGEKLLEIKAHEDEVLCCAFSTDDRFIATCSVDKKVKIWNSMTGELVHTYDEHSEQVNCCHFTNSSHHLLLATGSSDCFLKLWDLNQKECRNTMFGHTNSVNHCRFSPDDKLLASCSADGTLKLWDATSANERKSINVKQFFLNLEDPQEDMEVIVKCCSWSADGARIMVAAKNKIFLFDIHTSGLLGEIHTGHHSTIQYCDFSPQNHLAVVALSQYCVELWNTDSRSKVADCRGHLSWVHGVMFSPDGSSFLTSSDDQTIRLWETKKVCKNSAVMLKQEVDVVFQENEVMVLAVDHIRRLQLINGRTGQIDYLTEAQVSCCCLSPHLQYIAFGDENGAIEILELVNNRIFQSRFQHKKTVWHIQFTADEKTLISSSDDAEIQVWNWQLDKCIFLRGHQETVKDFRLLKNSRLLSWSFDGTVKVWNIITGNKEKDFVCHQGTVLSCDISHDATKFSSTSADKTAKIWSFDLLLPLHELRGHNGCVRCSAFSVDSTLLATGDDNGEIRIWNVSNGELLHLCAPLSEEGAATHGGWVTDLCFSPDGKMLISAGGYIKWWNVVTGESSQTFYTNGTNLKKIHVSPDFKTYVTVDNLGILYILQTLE

[2] = biological target: Serine/threonine-protein phosphatase (Homo sapiens, UniProt Q9BPW0); assay: PP5 phosphatase inhibitors, dose response, biochemical, fluorescence (AID 2395)
Sequence of Serine/threonine-protein phosphatase (Q9BPW0 whole entry): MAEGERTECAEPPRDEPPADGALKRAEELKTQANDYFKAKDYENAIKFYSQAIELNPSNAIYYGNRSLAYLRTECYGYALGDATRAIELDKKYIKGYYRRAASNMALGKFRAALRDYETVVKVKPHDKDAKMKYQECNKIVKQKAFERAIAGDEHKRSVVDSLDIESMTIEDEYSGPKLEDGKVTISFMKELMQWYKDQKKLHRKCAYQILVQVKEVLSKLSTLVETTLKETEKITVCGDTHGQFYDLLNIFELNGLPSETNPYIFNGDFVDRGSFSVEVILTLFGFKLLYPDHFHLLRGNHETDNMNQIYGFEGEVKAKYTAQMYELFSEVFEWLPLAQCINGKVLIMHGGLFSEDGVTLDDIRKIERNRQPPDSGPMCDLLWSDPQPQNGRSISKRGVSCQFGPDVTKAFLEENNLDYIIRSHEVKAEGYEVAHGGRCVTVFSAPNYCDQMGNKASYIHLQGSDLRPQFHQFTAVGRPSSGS

[3] = biological target: T2, Caspase-6 (Homo sapiens, UniProt P55212); assay: human caspase-6 inhibitors, dose response, biochemical, VEID-R110 fluorescence, cherry-pick (AID 720632)
T2 sequence (P55212 whole entry): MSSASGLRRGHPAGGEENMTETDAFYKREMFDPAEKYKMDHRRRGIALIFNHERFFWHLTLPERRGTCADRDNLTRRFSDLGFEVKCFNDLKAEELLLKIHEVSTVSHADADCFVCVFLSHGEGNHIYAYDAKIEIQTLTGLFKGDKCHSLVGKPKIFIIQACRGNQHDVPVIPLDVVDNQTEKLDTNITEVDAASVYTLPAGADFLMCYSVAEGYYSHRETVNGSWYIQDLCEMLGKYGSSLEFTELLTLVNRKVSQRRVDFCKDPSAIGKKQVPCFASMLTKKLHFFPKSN

[4] = biological target: Serine/threonine-protein phosphatase PP1-alpha catalytic subunit (Homo sapiens, UniProt P62136); assay: PP1 phosphatase inhibitors, dose response, biochemical, fluorescence (AID 2394)
Sequence of Serine/threonine-protein phosphatase PP1-alpha catalytic subunit (P62136 whole entry): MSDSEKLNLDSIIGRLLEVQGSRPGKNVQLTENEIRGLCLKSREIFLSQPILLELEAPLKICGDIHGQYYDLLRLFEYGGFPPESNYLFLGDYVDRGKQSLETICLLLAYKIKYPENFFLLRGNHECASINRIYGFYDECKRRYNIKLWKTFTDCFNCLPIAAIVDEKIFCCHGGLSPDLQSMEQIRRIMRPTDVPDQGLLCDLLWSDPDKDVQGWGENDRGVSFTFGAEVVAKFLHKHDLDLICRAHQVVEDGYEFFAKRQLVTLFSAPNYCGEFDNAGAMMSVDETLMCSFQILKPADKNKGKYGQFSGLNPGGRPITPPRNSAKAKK

[5] = biological target: T3, Sentrin-specific protease 8 (Homo sapiens, UniProt Q96LD8); assay: SENP8 protease inhibitors, SAR follow-up, biochemical, luminescence (AID 504501); format: functional
T3 sequence (Q96LD8 whole entry): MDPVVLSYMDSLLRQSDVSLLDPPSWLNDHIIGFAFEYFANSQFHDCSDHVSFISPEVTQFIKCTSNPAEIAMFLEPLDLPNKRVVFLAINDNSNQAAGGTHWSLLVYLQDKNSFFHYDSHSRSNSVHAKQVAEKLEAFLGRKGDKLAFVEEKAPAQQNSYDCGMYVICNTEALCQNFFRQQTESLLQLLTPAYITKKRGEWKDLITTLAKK

[6] = biological target: T4, Sentrin-specific protease 7 (Homo sapiens, UniProt Q9BQF6); assay: SENP7 protease inhibitors, SAR follow-up, biochemical, luminescence (AID 504497); format: functional
T4 sequence (Q9BQF6 whole entry): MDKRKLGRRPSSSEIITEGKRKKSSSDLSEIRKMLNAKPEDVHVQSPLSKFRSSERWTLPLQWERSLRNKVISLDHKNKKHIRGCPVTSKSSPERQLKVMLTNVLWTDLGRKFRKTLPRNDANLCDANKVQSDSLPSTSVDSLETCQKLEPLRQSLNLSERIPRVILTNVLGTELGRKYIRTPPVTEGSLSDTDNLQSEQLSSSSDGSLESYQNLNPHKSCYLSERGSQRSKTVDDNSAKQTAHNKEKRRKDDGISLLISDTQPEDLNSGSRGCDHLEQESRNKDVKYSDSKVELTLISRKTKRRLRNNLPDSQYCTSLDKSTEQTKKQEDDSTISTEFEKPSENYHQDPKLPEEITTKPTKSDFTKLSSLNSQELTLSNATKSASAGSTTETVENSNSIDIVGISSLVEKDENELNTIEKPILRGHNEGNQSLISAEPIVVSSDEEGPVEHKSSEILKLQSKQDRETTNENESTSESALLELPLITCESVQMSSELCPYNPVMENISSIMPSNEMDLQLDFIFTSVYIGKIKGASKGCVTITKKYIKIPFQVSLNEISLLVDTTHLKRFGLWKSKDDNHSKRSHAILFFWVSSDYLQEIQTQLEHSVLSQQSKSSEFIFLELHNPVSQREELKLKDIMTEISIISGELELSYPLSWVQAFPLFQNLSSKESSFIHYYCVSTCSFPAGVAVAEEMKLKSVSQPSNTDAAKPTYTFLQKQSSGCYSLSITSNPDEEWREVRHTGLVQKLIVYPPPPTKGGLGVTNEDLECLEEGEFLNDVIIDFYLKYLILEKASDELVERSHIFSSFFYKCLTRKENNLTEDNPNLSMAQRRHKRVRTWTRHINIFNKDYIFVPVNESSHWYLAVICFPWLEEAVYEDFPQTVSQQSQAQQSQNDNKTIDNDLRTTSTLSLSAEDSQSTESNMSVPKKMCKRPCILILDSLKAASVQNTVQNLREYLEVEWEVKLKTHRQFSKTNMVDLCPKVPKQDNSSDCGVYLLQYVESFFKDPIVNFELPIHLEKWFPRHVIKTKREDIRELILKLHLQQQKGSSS

[7] = biological target: T5, Caspase-3 (Homo sapiens, UniProt P42574); assay: SAR Analysis of small molecule inhibitors of Sentrin-specific proteases (SENPs) using a Caspase-3 Selectivity assay. [Related pubchem assays (depositor defined):AID2540, AID2599, AID434973, AID489001]; format: functional
T5 sequence (P42574 whole entry): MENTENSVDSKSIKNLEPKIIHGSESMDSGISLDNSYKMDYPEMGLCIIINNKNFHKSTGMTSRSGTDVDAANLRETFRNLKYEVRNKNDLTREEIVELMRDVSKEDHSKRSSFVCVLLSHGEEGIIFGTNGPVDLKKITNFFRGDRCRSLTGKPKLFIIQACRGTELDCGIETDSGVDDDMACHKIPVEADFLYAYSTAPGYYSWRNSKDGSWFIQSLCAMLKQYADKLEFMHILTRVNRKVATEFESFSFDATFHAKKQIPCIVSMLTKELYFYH

[8] = biological target: T6, Sentrin-specific protease 6 (Homo sapiens, UniProt Q9GZR1); assay: SAR Analysis of small molecule inhibitors of Sentrin-specific protease 6 (SENP6) using a Luminescent assay. [Related pubchem assays (depositor defined):AID2582, AID2599]; format: functional
T6 sequence (Q9GZR1 whole entry): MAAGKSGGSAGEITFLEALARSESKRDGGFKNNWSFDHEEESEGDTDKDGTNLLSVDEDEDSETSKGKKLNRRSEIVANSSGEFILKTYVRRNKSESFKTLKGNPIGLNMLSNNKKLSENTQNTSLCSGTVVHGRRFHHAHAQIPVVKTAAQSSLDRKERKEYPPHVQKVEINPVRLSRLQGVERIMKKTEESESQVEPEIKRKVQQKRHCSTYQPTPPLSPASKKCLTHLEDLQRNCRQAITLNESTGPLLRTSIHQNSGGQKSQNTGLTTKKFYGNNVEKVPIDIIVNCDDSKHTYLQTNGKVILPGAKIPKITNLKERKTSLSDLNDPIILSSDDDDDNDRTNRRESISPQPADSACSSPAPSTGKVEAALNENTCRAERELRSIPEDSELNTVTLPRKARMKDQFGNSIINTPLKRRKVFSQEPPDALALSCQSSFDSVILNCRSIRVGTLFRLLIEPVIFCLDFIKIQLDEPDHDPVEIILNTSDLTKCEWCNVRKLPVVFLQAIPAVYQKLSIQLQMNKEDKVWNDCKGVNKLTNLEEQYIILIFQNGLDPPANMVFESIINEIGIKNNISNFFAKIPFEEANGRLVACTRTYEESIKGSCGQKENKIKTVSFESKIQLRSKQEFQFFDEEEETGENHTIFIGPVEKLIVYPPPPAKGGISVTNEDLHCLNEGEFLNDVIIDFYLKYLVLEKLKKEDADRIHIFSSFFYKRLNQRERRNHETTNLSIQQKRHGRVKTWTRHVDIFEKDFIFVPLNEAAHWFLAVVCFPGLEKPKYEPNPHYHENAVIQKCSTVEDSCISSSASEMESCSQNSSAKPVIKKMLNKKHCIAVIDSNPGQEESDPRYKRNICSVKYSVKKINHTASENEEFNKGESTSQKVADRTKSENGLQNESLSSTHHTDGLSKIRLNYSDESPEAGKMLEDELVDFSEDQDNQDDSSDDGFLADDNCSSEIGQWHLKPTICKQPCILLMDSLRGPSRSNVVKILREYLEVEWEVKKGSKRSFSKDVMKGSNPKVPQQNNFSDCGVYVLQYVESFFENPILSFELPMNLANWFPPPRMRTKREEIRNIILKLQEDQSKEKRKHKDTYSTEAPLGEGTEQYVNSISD

[9] = biological target: Melanin-concentrating hormone receptor 1 (Homo sapiens, UniProt Q99705); assay: Late-stage fluorescence-based counterscreen for antagonists of the G-protein coupled receptor 7 (GPR7): cell-based dose response assay to identify antagonists of the melanin-concentrating hormone receptor 1 (MCHR1) Set 5.; format: functional
Sequence of Melanin-concentrating hormone receptor 1 (Q99705 whole entry): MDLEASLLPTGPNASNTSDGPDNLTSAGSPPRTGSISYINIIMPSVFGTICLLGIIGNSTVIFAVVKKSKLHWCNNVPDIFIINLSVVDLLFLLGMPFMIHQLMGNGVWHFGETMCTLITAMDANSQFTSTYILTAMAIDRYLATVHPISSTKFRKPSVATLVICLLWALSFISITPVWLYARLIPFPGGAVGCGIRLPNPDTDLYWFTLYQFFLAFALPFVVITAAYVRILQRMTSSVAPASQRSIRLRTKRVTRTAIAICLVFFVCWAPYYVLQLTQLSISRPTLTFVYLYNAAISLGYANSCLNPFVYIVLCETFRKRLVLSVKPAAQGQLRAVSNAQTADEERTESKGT

[10] = test system: HEK293; assay: optical interference in Abeta FP readout, dose response, artefact control for IDE activator project, biochemical, fluorescence polarization (AID 588442); format: functional, cell-based; conditions: Homo sapiens
[11] = test system: HEK293; assay: HEK cell cytotoxicity by LDH release, dose response, cytotoxicity control for IDE activator project, fluorescence, HEK cells (AID 588440); format: functional, cell-based; conditions: Homo sapiens;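 further: cytotoxicity by LDH release measuring loss of membrane integrity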
[12] = biological target: T7, Insulin-degrading enzyme (Homo sapiens, UniProt P14735); assay: activators of endogenous IDE in HEK cells, dose response, cell-based, fluorescence polarization (AID 588439); format: functional
T7 sequence (P14735 whole entry): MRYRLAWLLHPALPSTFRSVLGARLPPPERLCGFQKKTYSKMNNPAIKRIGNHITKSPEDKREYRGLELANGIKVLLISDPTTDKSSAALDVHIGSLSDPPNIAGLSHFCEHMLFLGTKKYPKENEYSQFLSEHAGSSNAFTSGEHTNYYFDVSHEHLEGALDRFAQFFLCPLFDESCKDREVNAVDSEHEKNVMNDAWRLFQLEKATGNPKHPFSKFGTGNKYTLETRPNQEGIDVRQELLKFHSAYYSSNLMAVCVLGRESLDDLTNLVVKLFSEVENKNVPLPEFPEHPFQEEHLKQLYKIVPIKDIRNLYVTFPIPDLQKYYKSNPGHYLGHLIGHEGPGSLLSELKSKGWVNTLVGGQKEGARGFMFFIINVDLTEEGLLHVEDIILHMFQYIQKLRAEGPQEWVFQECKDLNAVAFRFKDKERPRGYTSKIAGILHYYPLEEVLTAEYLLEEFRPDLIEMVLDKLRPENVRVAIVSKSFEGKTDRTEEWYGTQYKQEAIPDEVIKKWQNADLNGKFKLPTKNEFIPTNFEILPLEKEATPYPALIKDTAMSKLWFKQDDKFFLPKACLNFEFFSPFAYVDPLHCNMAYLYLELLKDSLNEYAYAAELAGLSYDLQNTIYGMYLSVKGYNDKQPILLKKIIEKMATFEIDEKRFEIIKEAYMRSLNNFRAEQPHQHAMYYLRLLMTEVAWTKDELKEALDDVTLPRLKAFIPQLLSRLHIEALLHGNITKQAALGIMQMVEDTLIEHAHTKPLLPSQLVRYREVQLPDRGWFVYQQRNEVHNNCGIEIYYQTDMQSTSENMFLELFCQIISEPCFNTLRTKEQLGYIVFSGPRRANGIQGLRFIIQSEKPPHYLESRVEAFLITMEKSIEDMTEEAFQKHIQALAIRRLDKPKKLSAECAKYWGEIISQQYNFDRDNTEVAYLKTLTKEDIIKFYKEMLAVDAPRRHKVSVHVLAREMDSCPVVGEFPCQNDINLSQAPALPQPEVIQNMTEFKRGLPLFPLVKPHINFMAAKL

[13] = biological target: T7, Insulin-degrading enzyme; assay: activators of recombinant IDE enzyme, dose response, counter-screen for IDE activator project, biochemical, fluorescence polarization (AID 588681)

COC(=O)CCC(=O)OC1(C)C(=O)C=C2C=C(C3CC3)N(CCCCO)C=C2C1=O (stereo not drawn)
IC50 [1]: 19.4 µM (active)
IC50 [2]: 11.8 µM (not active)
AC50 [3]: 8.77 µM (active)
IC50 [4]: 57.6 µM (not active)

Fc1ccc(N/N=C/c2cn(Cc3ccccc3)c3ccccc23)cc1
IC50 [5]: > 99 µM (inactive)
IC50 [6]: > 99 µM (inactive)
IC50 [7]: > 99 µM (inactive)
IC50 [8]: > 99 µM (inactive)

COc1ccc(Oc2c(Cl)cnn(Cc3ccccc3C(C)C)c2=O)cc1
IC50 [9]: 1.95 µM (active)

O=C1c2ccccc2C(Nc2ccc3[nH]c(-c4cccnc4)nc3c2)N1Cc1ccco1 (stereo not drawn)
EC50 [10]: > 55.9 µM (inactive)
IC50 [11]: > 89.1 µM (inactive)
EC50 [12]: > 54.6 µM (inactive)
EC50 [13]: > 54.6 µM (inactive)
